From ChEMBL document CHEMBL1201862, “PubChem BioAssay data set” (2004)
Calls of active or inactive are those of the source.

How the values were obtained:
[1] = ATP-based viability loss in HeLa cells – cell-based, CellTiter-Glo luminescence, dry powder, set 2, cytotoxicity control, dose response (AID 720593); format: functional
[2] = IC50 of Artemis nuclease activity blockers – biochemical, fluorescence intensity, dose response (AID 720701); format: functional;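 also: Artemis endonuclease enzyme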
Insulin-degrading enzyme = biological target: T1, Insulin-degrading enzyme (Homo sapiens, UniProt P14735); test: recombinant IDE activation, cell-free – biochemical, fluorescence polarization, counter-screen for IDE activator project, dose response (AID 588681)
T1 sequence (P14735 whole entry): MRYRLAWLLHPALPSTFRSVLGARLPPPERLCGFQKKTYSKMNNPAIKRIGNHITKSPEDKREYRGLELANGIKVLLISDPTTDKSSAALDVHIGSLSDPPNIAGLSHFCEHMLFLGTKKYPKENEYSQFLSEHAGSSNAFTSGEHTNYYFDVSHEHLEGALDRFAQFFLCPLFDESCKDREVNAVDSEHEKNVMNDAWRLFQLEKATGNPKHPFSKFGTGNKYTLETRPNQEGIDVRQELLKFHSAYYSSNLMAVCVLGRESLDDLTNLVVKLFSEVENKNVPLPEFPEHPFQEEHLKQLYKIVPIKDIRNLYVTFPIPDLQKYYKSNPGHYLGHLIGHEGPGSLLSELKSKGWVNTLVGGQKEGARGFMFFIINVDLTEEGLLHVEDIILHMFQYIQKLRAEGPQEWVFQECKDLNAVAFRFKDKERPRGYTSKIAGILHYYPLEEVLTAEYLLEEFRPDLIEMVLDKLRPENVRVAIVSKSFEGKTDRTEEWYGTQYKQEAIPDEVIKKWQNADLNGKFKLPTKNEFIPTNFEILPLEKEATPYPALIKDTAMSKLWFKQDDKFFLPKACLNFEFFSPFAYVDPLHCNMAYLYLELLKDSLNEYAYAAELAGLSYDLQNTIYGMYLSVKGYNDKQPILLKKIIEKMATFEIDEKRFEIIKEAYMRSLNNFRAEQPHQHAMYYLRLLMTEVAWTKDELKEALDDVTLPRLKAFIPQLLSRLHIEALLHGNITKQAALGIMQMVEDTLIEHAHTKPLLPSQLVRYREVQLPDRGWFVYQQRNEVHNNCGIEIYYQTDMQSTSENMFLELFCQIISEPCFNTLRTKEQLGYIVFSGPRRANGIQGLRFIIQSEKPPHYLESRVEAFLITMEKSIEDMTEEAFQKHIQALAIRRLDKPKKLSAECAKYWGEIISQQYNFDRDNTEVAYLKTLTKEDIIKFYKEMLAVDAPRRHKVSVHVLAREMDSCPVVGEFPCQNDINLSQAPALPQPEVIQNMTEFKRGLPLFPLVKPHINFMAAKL

HEK293 = test: optical interference in Abeta FP readout, dose response, artefact control for IDE activator project, biochemical, fluorescence polarization (AID 588442); format: functional, cell-based; conditions: Homo sapiens
[3] = biological target: Serine/threonine-protein kinase 17A (Homo sapiens, UniProt Q9UEE5); format: functional
Chain of Serine/threonine-protein kinase 17A (Q9UEE5 whole entry): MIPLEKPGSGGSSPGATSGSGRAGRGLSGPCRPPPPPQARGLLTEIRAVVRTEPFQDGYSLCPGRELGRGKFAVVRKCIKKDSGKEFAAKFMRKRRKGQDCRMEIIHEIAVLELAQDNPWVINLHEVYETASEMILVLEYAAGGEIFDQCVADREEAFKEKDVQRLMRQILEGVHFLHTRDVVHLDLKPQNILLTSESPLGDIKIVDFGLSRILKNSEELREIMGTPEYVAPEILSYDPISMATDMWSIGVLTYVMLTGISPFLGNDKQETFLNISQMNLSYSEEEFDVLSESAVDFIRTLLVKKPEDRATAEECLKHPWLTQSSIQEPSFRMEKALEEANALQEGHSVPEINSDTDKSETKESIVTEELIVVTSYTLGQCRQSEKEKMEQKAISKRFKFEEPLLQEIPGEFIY

[4] = biological target: High affinity nerve growth factor receptor (Homo sapiens, UniProt P04629); format: functional;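 also: NTRK1 tested as one member of a kinome-wide profiling panel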
Chain of High affinity nerve growth factor receptor (P04629 whole entry): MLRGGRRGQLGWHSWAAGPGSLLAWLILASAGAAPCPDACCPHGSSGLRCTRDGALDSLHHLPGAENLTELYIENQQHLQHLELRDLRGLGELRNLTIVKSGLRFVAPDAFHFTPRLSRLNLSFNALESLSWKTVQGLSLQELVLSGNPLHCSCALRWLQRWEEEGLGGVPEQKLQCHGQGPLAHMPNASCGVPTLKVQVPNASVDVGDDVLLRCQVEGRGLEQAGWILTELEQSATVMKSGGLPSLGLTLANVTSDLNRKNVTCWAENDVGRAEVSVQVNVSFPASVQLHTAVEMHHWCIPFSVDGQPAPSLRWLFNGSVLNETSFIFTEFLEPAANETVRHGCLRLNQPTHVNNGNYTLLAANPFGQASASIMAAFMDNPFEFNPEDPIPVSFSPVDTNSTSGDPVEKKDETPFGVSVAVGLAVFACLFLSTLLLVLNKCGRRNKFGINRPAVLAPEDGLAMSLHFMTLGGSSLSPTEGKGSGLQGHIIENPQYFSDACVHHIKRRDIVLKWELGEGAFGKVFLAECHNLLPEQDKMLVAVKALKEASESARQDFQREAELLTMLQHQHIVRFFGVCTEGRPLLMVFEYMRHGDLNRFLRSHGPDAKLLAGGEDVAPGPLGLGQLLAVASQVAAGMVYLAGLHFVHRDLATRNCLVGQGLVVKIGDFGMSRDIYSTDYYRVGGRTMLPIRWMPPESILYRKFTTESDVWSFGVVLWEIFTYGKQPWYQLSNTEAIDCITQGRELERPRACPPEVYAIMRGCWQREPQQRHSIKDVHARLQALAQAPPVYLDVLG

[5] = biological target: G protein-coupled receptor kinase 5 (Homo sapiens, UniProt P34947); test: Navigating the Kinome. Panel member name: GPRK5; format: functional
Chain of G protein-coupled receptor kinase 5 (P34947 whole entry): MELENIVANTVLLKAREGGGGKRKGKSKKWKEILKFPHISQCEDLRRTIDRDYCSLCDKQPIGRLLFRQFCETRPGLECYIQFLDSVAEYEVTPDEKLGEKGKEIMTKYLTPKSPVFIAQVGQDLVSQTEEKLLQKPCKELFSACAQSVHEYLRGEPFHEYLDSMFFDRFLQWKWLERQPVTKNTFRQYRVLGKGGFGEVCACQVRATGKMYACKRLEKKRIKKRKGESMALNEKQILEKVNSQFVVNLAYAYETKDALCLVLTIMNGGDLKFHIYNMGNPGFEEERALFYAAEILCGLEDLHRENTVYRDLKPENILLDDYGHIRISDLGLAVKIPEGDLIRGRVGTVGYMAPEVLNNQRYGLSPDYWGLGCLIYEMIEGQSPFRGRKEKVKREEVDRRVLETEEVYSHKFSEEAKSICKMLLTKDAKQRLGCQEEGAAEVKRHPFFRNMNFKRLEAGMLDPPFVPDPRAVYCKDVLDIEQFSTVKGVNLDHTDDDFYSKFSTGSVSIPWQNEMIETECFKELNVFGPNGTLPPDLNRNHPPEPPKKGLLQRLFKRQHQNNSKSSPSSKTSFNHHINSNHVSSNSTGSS

[6] = biological target: Serine/threonine-protein phosphatase (Homo sapiens, UniProt Q9BPW0); test: inhibition of protein phosphatase 5 activity – biochemical, fluorescence, dose response (AID 2395)
Chain of Serine/threonine-protein phosphatase (Q9BPW0 whole entry): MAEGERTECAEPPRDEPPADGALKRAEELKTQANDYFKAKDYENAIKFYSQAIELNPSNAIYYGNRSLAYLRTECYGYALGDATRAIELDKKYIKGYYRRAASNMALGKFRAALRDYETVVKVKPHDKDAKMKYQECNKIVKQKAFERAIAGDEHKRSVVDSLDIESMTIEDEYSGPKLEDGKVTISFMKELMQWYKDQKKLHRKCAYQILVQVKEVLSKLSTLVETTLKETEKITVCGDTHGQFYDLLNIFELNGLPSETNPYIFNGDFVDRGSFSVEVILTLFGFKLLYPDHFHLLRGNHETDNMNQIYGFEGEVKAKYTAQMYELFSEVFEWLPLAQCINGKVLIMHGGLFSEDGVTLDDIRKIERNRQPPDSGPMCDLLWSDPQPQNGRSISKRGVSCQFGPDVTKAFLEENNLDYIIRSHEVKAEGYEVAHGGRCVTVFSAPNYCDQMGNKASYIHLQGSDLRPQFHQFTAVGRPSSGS

[7] = biological target: T2, Sentrin-specific protease 6 (Homo sapiens, UniProt Q9GZR1); format: functional;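 also: Luminescence-based dose-response confirmatory assay of SENP6 inhibition, following up an ultra-high-throughput screen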
T2 sequence (Q9GZR1 whole entry): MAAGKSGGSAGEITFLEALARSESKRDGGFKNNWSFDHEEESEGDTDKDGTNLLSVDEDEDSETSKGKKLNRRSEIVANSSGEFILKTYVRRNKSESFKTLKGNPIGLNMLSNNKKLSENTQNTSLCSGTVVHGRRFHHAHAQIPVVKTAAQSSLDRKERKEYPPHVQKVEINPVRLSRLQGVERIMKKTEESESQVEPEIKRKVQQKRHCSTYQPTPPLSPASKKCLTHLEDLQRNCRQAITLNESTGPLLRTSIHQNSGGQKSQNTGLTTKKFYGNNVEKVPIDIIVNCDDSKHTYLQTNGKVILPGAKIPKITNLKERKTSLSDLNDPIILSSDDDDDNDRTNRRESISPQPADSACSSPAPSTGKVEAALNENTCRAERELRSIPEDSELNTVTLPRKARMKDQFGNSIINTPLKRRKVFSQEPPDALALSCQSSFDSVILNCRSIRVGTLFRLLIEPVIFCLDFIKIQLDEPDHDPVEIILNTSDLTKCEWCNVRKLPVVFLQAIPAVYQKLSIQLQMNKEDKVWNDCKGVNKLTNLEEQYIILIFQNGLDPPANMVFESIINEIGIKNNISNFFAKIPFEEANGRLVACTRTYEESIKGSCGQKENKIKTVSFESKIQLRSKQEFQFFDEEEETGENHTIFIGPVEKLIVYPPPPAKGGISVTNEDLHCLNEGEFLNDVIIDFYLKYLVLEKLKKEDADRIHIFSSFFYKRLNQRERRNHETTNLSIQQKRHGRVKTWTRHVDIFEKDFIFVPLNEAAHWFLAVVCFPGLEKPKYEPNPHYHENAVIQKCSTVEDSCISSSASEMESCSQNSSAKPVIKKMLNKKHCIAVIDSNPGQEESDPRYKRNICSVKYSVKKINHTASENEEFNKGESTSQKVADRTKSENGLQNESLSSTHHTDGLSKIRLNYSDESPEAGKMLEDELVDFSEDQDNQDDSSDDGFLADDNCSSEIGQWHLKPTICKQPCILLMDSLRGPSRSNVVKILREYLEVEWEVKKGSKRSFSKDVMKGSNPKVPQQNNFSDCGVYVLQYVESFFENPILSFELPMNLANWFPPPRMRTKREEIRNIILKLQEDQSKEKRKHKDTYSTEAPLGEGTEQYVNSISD

[8] = biological target: T3, Tyrosyl-DNA phosphodiesterase 2 (Homo sapiens, UniProt O95551); test: potency against TDP2 phosphodiesterase activity – biochemical, epi absorbance, IC50, dose response (AID 743297)
T3 sequence (O95551 whole entry): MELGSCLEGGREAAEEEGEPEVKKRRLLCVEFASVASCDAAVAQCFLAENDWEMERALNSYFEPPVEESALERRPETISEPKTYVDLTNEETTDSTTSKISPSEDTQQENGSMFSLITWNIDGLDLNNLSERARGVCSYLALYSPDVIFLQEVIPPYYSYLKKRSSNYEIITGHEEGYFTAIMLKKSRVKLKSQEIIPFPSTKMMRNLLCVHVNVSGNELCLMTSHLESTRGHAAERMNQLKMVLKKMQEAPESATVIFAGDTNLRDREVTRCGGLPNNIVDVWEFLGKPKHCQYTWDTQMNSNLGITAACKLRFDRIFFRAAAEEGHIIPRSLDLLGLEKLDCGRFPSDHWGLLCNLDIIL

With `CC(C)CC(=O)NC(c1cccs1)c1ccc2cccnc2c1O` (stereo unspecified) the AC50 [1] was 20.3 µM (active).
In the case of `CCOC(=O)c1ccc(NC2=CC(=O)C(=O)c3ccccc32)cc1`, the IC50 [2] is reported as 2.6 µM (active).
With `OC(CNCCC1C=Nc2ccccc21)Cn1c2ccc(Cl)cc2c2cc(Cl)ccc21` (stereo unspecified) the EC50 (Insulin-degrading enzyme) was > 54.7 µM (inactive) and the EC50 (HEK293) was > 56 µM (inactive).
With `NC1CCC(Nc2nc(Cl)cc(-c3c[nH]c4ncccc34)n2)CC1` (stereo unspecified) the Ki [3] was 0.0316 µM (active), the pKi [3] was 7.5 and the Ki [4] was > 3.16 µM (inactive).
For `O=C(O)C1CN(Cc2ccc(OCc3ccccc3)cc2Cl)C1`, the Ki [5] was > 3.98 µM (inactive).
With `COc1ccc(C(=O)c2nccc3cc(OC)c(OC)cc23)cc1OC` the IC50 [6] was 19.6 µM (not active) and the IC50 [7] was 0.805 µM (active).
With `Cc1ccccc1-c1cc2c(nn1)-c1ccccc1C2=O` the IC50 [8] was 32 µM (inactive).
